For one test, the target named is T1, HepI (Escherichia coli, UniProt P24173).
T1 construct: made in house; host or cells: E. coli One Shot BL-21-AI
Briefly: Intrinsic tryptophan fluorescence of HepI. It is filed as binding, E. coli K12. Particulars: for Blue shift of HepI tryptophan emission λmax: HepI plus ligand alone, vs apo; for Blue shift of HepI tryptophan emission λmax with ODLA and inhibitor: inhibitor added to HepI•ODLA complex. Here is the method: Fluorescence spectra were measured in triplicate at room temperature using 200 μL samples containing 1 μm HepI, in a 10 mm HEPES, 50 mm KCl, and 10 mm MgCl2, pH = 7.5 buffer. Samples were contained in Starna 45-Q-3 cells (minimum volume 200 µL). Substrate and inhibitor concentrations were 100 μM. All measurements were taken using a Fluoromax-4 fluorometer with an excitation slit bandpass of 2 nm and an emission slit bandpass of 3 nm (λex = 290 nm, λem = 310–450 nm). The data was subtracted from blanks, normalized and fit to a lognormal distribution (Eq. 7)[36] to determine the emission maximum (λmax) with in house scripts written in MATLAB R2018A.7 Iλ=Imax·e^-ln2/ln^2ρ·ln^2(a-λ/a-λmax)

The next test relates to E. coli K12. The test can be described thus: Growth challenge assay, 96-well plate. The format is cell-based. The conditions noted are these: for Inflection point in cell viability: E. coli K12, growth rate, Fig. 9; for Effect on growth of E. coli K12: increasing concentrations, 18-h period. As for the experimental part:
(§1) The assays were prepared by plating E. coli K12 onto an LB-agar plate and grown overnight (12–18 h)[60]. A colony forming unit was chosen to inoculate 10 mL of fresh LB media in a tightly capped 15 mL falcon tube and placed in an incubator (no agitation) at 37 °C for exactly 24 h to increase the number of viable cells for inoculation of the plate and thusly reproducibility in highly variable growth patterns. A 96-well plate was then filled with a variety of inhibitor concentrations taken from stock solutions made up in ultra-pure water allowing for one row to remain free of the inhibitor. Each inhibitor concentration was given 3-wells to ensure a triplicate of data is collected at once. With the same fresh media used to make the overnight culture, the overnight growths were added to the plate in a 1:1000 dilution (total volume 200 uL) and the plate sealed with clear adhesive plastic sealant. One row has been designated for uncultured media to be used for pre-blanking measurements and to ensure that the media isn’t growing spontaneously.
An experimental protocol was created using the Softmax Pro® software for a Molecular Devices Spectramax M5 plate reader. The parameters have been selected such that it collects pre-blanked absorbance readings at 600 nm wavelengths every 30 min at 37 °C with shaking every 10 min at 400 s intervals for 18 h total. Absorbance values were corrected for path length using the lateral reading path correction (8) and are plotted overtime to establish a growth curve.8 l=4×V/π×d^2 l = path length from Beer’s law ( A=εlc ), V = volume (cm^3), d = diameter of well (cm).
Data from the growth assay were analyzed using MATLAB R2018A. The derivative of the curve was calculated and the maximum rate as determined by the derivative was reported as the growth rate for that condition.

For test [1], the system named is LPS production in E. coli K12. The test can be described thus: LPS visualization gels of lipid extracts from growth challenge samples. It is filed as cell-based. The conditions noted are these: for Concentration range over which LPS production decreases: E. coli K12, lipids from 4 × 10^8 cells; for IC50: Escherichia coli, E. coli K12, silver-stained gels, inflection point of sigmoid fit, read-out: IC50 of LPS production (LPS band pixel density). Here is the method:
as §1
As previously established, lipid extraction occurs through lysis of surface polysaccharides with a lysis buffer containing 1% SDS, 20% glycerol, 100 mM Tris–HCl and 0.04% bromophenol blue at a pH 6.8[61]. The cellular concentrations from each well were determined using the last collected OD600 corrected using Eq. (8), centrifuged and resuspended in the correct volume of lysis buffer to obtain 4 × 10^8 cells/100 µL solution. Addition of Proteinase K at 1 mg/mL concentration was incubated for 1 h at 37 °C. These samples were then loaded onto a 15% separating, 6% stacking SDS–polyacrylamide gel (recipes received from https://www.bio-rad.com/) in a 19:1 acrylamide to bis-acrylamide ratio and run with a voltage gradient from 50–150 V. The gels were then stained using the protocol described previously with no modifications[62] and imaged using a scanner.
Relative LPS band density was determined using analysis methods provided by ImageJ software. The band pixel density were analyzed relative to a purified sample of heptosylated O-deacylated Lipid A at 100 nM. The plot was generated of relative band density vs. concentration of inhibitor[63].

The target of another test is T2, HepI R60A (Escherichia coli, UniProt P24173, R60A).
T2 construct: made in house; host or cells: E. coli One Shot BL-21-AI (stated for HepI in general)
T2 sequence (P24173 whole entry R60A): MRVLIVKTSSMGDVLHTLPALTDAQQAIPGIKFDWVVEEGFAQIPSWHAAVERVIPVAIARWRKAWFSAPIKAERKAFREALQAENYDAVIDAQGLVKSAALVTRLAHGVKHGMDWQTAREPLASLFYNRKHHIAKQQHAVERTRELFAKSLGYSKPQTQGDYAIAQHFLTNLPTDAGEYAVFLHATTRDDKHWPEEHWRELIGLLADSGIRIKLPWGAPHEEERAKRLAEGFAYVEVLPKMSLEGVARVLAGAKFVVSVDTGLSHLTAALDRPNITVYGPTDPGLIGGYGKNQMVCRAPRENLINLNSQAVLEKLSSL
Briefly: HepI inhibition, ADP/NADH coupled assay (R60A mutant). It is filed as biochemical, E. coli K12. Particulars: for ΔΔG (kcal/mol) Exp: Arg60Ala relative to WT; for ΔG (kcal/mol) Exp: Arg60Ala, from Ki; for kcat: HepI R60A in presence of inhibitor. As for the experimental part: As previously reported[11],[14],[15], an ADP/NADH coupled assay was used to monitor HepI activity by monitoring the absorbance change at 340 nm at 37 °C on a Cary Bio 100 UV–Vis Spectrometer. Under normal conditions, the assay buffer was composed of 50 mM HEPES, 50 mM KCl, 10 mM MgCl2, pH 7.5. The coupled enzyme reaction additionally contained 100 μM phosphoenolpyruvate, 100 μM NADH, 100 μM dithiothreitol (DTT) and 0.05 U/μL of both pyruvate kinase and lactate dehydrogenase. 100 μM ADPH was used when ODLA concentration was varied and 100 μM ODLA was used when ADPH was varied. Once a stable baseline was established (~ 5 min), the reaction was initiated by addition of HepI to a final concentration of 50 nM or 100 nM (for high and lower substrate concentrations respectively) and all reported reaction rates are after background subtraction. When running 12 samples at once, plastic cuvette stirs and a repeat pipettor was used to inject 200 μL enzyme. Inhibition of HepI was monitored using the same ADP/NADH coupled assay, all conditions of the assay were the same as previously described unless otherwise stated. Ki values for each of the compounds were determined by varying compound final concentration from 100 μm to 10 nm, and a final concentration of 10 μM ODLA. Competition assays against ADPH were done with excess ODLA (100 μM) and varying ADPH from 2–0.25 μM. Competition assays against ODLA were done with excess ADPH (100 μM) and varying ODLA from 2–0.25 μM. Reactions were started with addition of enzyme and inhibitor was varied from 30–0.01 μM. Kinetics were fit to Lineweaver-Burke (Eq. 1), competitive (Eq. 2), non-competitive (Eq. 3), mixed (Eq. 4), Dixon (Eq. 5), or Cornish-Bowden (Eq. 6) models. All fitting and plotting was done through MATLAB R2018A.1 1/V1/[S]=KM/Vmax[S]+1/Vmax 2 V[S]=Vmax[S]/KM1+[I]/Ki+[S] 3 V[S]=Vmax[S]/1+([I]/Ki)/KM+[S] 4 V[S]=Vmax[S]/KM(1+[I]/Ki)+[S](1+[I]/αKi) 5 1/V[I]=KM1+I/Ki+[S]1+I/αKi/Vmax[S] 6 [S]/V[I]=KM1+I/Ki+[S]1+I/αKi/Vmax

≈ marks a conversion by molar mass, not a printed value.

T1 sequence (P24173 whole entry): as the sequence (P24173 whole entry R60A) above, with A60R counted along it

One may read the IC50 as the concentration that inhibits the measured activity by half. Broadly, the Ki is the dissociation constant of the complex between target and ligand, obtained from inhibition or displacement. A word on the kcat: it is the number of substrate molecules converted per active site and unit of time at saturation. Turning to `[H]/N=C(/N)N[C@H]1[C@H](O)[C@@H](O)[C@H](O[C@@H]2O[C@@H](C)[C@](O)(C=O)[C@H]2O[C@@H]2O[C@@H](CO)[C@H](O)[C@@H](O)[C@@H]2NC)[C@@H](N/C(N)=N\[H])[C@@H]1O` [Streptomycin], on HepI, the “Blue shift of HepI tryptophan emission λmax” value is reported as “no changes to the emission spectra”; the “Blue shift of HepI tryptophan emission λmax with ODLA and inhibitor” value was “unperturbed”. In the test with E. coli K12, the “Inflection point in cell viability” value amounted to 25 ng/mL and the “Effect on growth of E. coli K12” value is “challenges the growth”. In addition, in test [1], the “Concentration range over which LPS production decreases” value fell in the range of 25 to 27.5 ng/mL and the IC50 turned out to be 0.0262 ± 0.001 µg/mL (≈ 0.045 µM). Besides, on HepI R60A, the Ki came to 6.25 ± 5.43 µM, the “ΔΔG (kcal/mol) Exp” value is given as 1.4 ± 0.4 kcal/mol, the “ΔG (kcal/mol) Exp” value is reported as -7.1 ± 0.4 kcal/mol and the “kcat” value was 0.149 ± 0.013 s⁻¹. The “Ki relative to WT” value at HepI R60A (HepI R60A vs WT) is “increased the Ki values an order of magnitude”.
Consider `NC[C@H]1O[C@H](O[C@H]2[C@H](O)[C@@H](O[C@H]3O[C@H](CO)[C@@H](O)[C@H](N)[C@H]3O)[C@H](N)C[C@@H]2N)[C@H](N)C[C@@H]1O` [Tobramycin], for which, on HepI, the “Blue shift of HepI tryptophan emission λmax” value is on record as “did not alter the λmax”; the “Blue shift of HepI tryptophan emission λmax with ODLA and inhibitor” value is recorded as 6 nm. For the same compound, in the test on E. coli K12, the “Inflection point in cell viability” value is recorded as “around 6.5 ng/mL” and the “Effect on growth of E. coli K12” value was “challenges the growth”. Further, in test [1] (E. coli K12), the “Concentration at which no LPS is detectible” value was ≥ 7.5 ng/mL. Besides, in test [1], the “Concentration range over which LPS production decreases” value was in the range of 5 to 7 ng/mL and the IC50 came to 0.0064 ± 0.0001 µg/mL (≈ 0.0137 µM). For the same compound, on HepI R60A, the Ki worked out at 3.4 ± 0.631 µM, the “ΔΔG (kcal/mol) Exp” value worked out at 0.7 ± 0.1 kcal/mol, the “ΔG (kcal/mol) Exp” value was -7.5 ± 0.1 kcal/mol and the “kcat” value stood at 0.111 ± 0.013 s⁻¹.

(Values after paper PMC9068772, “Discovery of first-in-class nanomolar inhibitors of heptosyltransferase I reveals a new aminoglycoside target and potential alternative mechanism of action” (Scientific Reports, 2022).)
